Laboratory results reported in patent US10526316B2, “Quinoxaline and pyridopyrazine derivatives as PI3Kβ inhibitors” (Janssen Pharmaceutica NV, priority 2015, dated 2020).
Where two headings read alike, the source gives them in different places.

Key:
kinase enzymes [1] = target: T1, kinase enzymes (Homo sapiens, UniProt P48736); assay: Enzyme binding assay (KINOMEscan, DiscoveRx), further kinases of Table A; conditions: PIK3Cγ_h
T1 construct: purchased DiscoveRx Corporation, San Diego (contract service, KINOMEscan)
Procedure, shortened: (§1)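 Compounds were profiled by KINOMEscan to obtain kinase binding affinities.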

kinase enzymes [2] = target: T2, kinase enzymes (Homo sapiens, UniProt P42345); assay: as above; conditions: MTOR_h
T2 construct: purchased DiscoveRx Corporation, San Diego (contract service, KINOMEscan)
Procedure, shortened: as §1

kinase enzymes [3] = target: T3, kinase enzymes (Homo sapiens, UniProt P42336); assay: as above; conditions: PIK3Cα_h
T3 construct: purchased DiscoveRx Corporation, San Diego (contract service, KINOMEscan)
Procedure, shortened: as §1

PI3Kβ = target: T4, PI3Kβ (Homo sapiens, UniProt P42338); assay: Enzyme binding assay (KINOMEscan, DiscoveRx); conditions: PIK3Cβ_h, read-out: Kd PIK3Cβ_h
T4 construct: purchased DiscoveRx Corporation, San Diego (contract service, KINOMEscan)
Procedure, shortened: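 Compounds are profiled for binding to the kinase using KINOMEscan. The affinity is then reported as an inhibitor Kd in nanomolar units.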

[4] = test system: Akt phosphorylated at Thr308 in PC-3 cells; assay: Cellular assay: phosphorylation of Akt at Thr308 in PC-3 cells (MSD ELISA); assay type: cell-based; conditions: PC-3 cells, 60 min compound incubation, MSD ELISA, read-out: IC50 pAkt_Thr308
Procedure, shortened: (§2)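 Phospho-Akt in whole-cell lysates is quantified by electrochemiluminescent immunoassay using phospho-site capture and total-Akt detection antibodies.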

PI3Kδ = target: T5, PI3Kδ (Homo sapiens, UniProt O00329); assay: Enzyme binding assay (KINOMEscan, DiscoveRx); conditions: PIK3Cδ_h
T5 construct: purchased DiscoveRx Corporation, San Diego (contract service, KINOMEscan)
T5 sequence (O00329 1-1044): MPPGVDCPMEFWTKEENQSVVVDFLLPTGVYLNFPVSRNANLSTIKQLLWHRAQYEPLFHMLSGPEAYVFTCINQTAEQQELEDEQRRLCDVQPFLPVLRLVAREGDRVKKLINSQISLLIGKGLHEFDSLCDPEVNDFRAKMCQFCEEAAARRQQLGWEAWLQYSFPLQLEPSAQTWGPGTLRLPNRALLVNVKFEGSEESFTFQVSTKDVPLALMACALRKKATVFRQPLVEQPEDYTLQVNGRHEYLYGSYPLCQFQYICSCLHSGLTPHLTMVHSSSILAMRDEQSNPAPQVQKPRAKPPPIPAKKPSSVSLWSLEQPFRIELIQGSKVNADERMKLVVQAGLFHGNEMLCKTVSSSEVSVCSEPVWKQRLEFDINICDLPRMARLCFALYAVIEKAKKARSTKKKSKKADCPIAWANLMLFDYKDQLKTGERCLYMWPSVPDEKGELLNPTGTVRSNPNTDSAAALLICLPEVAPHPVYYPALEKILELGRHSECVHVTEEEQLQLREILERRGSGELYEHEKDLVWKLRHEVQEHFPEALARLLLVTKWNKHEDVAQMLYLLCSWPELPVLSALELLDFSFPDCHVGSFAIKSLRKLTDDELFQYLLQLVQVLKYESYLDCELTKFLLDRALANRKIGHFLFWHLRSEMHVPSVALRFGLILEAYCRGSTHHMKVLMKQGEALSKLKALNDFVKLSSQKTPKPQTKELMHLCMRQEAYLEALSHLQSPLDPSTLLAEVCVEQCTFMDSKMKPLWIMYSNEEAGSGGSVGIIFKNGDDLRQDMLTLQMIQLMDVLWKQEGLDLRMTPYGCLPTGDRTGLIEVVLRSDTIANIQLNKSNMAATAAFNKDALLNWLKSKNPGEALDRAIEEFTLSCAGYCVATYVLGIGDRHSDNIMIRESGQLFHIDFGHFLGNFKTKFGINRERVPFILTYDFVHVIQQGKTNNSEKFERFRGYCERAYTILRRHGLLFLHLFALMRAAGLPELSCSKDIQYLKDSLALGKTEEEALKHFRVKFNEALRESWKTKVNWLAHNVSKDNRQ
Procedure, shortened: as §1

[5] = test system: Akt phosphorylated at Ser473 in PC-3 cells; assay: Cellular assay: phosphorylation of Akt at Ser473 in PC-3 cells (MSD ELISA); assay type: cell-based; conditions: PC-3 cells, 60 min compound incubation, MSD ELISA, read-out: IC50 pAkt_S473
Procedure, shortened: as §2

T4 sequence (P42338 whole entry): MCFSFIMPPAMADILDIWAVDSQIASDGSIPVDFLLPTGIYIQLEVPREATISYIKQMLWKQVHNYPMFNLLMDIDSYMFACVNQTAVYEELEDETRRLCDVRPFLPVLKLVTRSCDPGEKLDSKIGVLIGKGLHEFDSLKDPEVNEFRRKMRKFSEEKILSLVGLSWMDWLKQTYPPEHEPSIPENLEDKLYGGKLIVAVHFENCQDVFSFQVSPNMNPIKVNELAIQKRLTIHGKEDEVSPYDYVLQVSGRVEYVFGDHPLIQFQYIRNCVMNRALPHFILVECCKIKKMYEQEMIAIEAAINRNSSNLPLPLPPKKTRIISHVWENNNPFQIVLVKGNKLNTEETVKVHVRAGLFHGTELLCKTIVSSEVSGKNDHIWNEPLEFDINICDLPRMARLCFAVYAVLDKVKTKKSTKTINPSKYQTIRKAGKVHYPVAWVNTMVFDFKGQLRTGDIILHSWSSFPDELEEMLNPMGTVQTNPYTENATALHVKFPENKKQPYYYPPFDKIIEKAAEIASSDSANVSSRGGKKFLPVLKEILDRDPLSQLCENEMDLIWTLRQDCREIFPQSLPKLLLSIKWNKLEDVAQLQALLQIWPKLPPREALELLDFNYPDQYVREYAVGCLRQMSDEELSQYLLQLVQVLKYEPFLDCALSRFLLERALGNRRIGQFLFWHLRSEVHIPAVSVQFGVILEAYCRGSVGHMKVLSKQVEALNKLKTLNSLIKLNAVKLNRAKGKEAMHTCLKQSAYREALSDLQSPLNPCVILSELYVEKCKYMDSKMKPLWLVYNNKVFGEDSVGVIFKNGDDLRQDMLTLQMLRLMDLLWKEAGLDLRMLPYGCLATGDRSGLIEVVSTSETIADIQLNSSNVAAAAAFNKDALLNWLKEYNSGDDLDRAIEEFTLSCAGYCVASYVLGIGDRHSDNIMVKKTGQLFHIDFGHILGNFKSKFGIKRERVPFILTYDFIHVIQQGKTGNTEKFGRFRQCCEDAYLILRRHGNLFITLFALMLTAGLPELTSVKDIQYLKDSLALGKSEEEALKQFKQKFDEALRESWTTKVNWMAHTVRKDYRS
T3 sequence (P42336 whole entry): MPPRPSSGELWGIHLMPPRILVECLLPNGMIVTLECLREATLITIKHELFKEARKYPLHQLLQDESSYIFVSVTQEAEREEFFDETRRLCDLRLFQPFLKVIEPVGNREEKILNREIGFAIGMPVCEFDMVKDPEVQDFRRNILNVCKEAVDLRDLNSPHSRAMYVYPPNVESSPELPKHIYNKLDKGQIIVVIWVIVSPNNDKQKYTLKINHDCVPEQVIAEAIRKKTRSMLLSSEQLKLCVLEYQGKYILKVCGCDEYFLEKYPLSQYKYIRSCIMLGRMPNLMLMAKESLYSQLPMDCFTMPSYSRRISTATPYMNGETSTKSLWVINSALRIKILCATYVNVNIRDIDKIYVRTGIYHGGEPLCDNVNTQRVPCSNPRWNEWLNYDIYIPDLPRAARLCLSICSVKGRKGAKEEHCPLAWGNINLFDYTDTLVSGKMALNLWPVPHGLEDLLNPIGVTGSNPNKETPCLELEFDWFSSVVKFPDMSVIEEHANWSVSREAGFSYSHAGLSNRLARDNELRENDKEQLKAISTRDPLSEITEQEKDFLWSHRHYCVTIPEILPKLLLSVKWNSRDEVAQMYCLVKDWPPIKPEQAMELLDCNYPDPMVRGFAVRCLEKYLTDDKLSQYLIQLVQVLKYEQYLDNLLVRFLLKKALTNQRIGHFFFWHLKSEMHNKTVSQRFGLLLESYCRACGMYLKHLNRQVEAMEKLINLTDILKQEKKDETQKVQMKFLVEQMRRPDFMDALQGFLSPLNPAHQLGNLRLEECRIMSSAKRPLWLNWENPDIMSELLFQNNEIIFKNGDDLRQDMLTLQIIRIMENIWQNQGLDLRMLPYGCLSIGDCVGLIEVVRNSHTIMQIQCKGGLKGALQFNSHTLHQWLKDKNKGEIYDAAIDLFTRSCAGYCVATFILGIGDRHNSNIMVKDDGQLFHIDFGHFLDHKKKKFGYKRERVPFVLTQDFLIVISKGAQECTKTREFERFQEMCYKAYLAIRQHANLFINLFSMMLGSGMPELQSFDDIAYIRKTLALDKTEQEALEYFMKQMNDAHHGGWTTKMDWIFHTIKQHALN
T1 sequence (P48736 whole entry): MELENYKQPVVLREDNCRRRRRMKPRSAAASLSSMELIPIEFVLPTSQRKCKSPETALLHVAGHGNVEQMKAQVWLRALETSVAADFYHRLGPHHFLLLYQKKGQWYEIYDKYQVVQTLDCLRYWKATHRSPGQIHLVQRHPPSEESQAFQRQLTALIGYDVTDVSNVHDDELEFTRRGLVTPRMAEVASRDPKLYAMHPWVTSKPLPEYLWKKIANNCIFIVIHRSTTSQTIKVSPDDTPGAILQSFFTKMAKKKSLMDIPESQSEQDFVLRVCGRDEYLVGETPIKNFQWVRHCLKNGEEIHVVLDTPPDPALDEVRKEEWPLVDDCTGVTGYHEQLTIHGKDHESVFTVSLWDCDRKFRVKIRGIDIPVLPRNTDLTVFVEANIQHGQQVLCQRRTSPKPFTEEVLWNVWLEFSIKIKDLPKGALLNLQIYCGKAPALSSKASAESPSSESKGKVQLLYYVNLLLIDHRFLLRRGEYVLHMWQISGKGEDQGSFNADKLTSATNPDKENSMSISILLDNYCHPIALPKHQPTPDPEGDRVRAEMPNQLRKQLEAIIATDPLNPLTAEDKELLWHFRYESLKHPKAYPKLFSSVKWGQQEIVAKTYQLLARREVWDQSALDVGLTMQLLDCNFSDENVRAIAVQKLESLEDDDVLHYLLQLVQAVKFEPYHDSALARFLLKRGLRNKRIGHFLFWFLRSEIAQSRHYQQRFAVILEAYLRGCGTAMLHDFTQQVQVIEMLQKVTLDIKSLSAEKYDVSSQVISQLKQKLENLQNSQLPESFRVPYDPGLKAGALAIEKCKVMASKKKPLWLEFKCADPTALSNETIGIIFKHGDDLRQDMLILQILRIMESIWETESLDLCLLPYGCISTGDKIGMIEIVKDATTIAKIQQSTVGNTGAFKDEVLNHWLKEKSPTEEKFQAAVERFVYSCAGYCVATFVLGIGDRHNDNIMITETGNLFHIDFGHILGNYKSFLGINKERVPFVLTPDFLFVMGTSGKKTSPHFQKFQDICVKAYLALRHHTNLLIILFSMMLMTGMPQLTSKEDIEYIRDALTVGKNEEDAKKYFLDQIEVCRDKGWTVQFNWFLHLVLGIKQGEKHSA

SMILES | Kd (kinase enzymes [1]) [nM] | Kd (kinase enzymes [2]) [nM] | Kd (kinase enzymes [3]) [nM] | melting point [°C] | Kd (PI3Kβ) [nM] | IC50 ([4]; Homo sapiens, PC-3, 1 h) [nM] | Kd (PI3Kδ) [nM] | IC50 ([5]; Homo sapiens, PC-3, 1 h) [nM] | IC50 [4] [nM] | IC50 [5] [nM]
CN(C)C(=O)c1cc(C2CCCN2c2cc(F)cc(CO)c2)c2nc(N3CCOCC3)cnc2c1 (stereo not shown) [Compound 45] | 2090 | 31600 | 170 | 80 | 3 | 72 | 126 | 166 |  | 
CC(C)NCc1cc(F)cc(N2CCCC2c2cc(C(=O)N(C)C)cc3ncc(N4CCOCC4)nc23)c1 (stereo not shown) [Compound 49] | 7590 | > 30200 | 2190 | 80 | 16 | 468 | 933 | > 513 |  | 
CN(C)C(=O)c1cc(C2CCCN2c2cccc(C(F)(F)F)c2)c2nc(N3CCOCC3)cnc2c1 (stereo not shown) [Compound 52] | 13800 | > 30200 | 6170 | 80 | 38 | 240 | 4900 | > 513 |  | 
CN(C)C(=O)c1cc(C2CCCN2c2ccc(C#N)c(F)c2)c2nc(N3CCOCC3)cnc2c1 (stereo not shown) [Compound 54] | > 30200 | 26900 | 16200 | 80 | 115 | > 513 | 7080 | > 513 |  | 
Cc1c(N2CCCC2c2cc(C(=O)N(C)C)cc3ncc(N4CCOCC4)nc23)cccc1C(F)(F)F (stereo not shown) [Compound 55] | > 30200 | > 30200 | > 30200 | 80 | 3980 | > 513 | > 30200 | > 513 |  | 
O=C(c1cc(C2CCCN2c2cc(F)cc(F)c2)c2nc(N3CCOCC3)cnc2c1)N1CC(CO)C1 (stereo not shown) [Compound 63] | 891 | 8130 | 79 | 100 | 0.5 | 4 | 27 | 9 |  | 
CC(Oc1cccc(F)c1)c1cc(C(=O)N(C)C)cc2ncc(N3CCOCC3)nc12 (stereo not shown) [Compound 68] | 15100 | 22400 | 3160 | 49 | 3 | 148 | 589 | 257 |  | 
CC(C)N1CCN(C(=O)c2cc(C3CCCN3c3cc(F)cc(F)c3)c3nc(N4CCOCC4)cnc3c2)CC1 (stereo not shown) [Compound 69] | 3090 | > 30200 | 891 | 80 | 3 | ~32 | 195 | 117 |  | 
CC(Oc1cc(F)ccc1Br)c1cc(C(=O)N(C)C)cc2ncc(N3CCOCC3)nc12 (stereo not shown) [Compound 78] | 13500 | > 30200 | 3720 | 235 | 15 | ~295 | 1170 | ~219 |  | 
COC(=O)c1cc(C(C)Nc2cc(F)cc(F)c2)c2nc(N3CCOCC3)cnc2c1 (stereo not shown) [Compound 80] | 24500 | > 30200 | > 30200 | 244 | 50 |  | 7590 |  | ~79 | ~214
CC(Nc1cc(F)cc(F)c1)c1cc(C(=O)O)cc2ncc(N3CCOCC3)nc12 (stereo not shown) [Compound 83a] | 813 | 1320 | 112 | 240 | 2 |  | 158 |  | > 513 | > 513
CC(Nc1cc(F)cc(F)c1)c1cc(CO)cc2ncc(N3CCOCC3)nc12 (stereo not shown) [Compound 84] | 1290 | 8510 | 692 | 80 | 1 | 32 | 96 | 56 |  | 
COC(=O)c1cc(C(C)N(C)c2cccc(F)c2)c2nc(N3CCOCC3)cnc2c1 (stereo not shown) [Compound 97] | > 30200 | > 30200 | 19100 | 146 | 214 | > 513 | > 30200 | > 513 |  | 

Further lines, results first:

Kd (kinase enzymes [1]) [nM] | Kd (kinase enzymes [2]) [nM] | Kd (kinase enzymes [3]) [nM] | melting point [°C] | Kd (PI3Kβ) [nM] | IC50 ([4]; Homo sapiens, PC-3, 1 h) [nM] | Kd (PI3Kδ) [nM] | IC50 ([5]; Homo sapiens, PC-3, 1 h) [nM] | IC50 [4] [nM] | IC50 [5] [nM] | SMILES
87 | 8910 | 11 | 80 | 0.2 | 1 | 8 | 1 |  |  | CN(CCO)C(=O)c1cc(C2CCCN2c2cc(F)cc(F)c2)c2nc(N3CCOCC3)cnc2c1 (stereo not shown) [Compound 50]
339 | > 30200 | 55 | 80 | 1 | 3 | 39 | 3 |  |  | CON(C)C(=O)c1cc(C2CCCN2c2cc(F)cc(F)c2)c2nc(N3CCOCC3)cnc2c1 (stereo not shown) [Compound 51]
234 | 2040 | 25 | > 260 | 1 | 32 | 51 | 52 |  |  | O=C(O)c1cc(C2CCCN2c2cc(F)cc(F)c2)c2nc(N3CCOCC3)cnc2c1 (stereo not shown) [Compound 62]
200 | 10700 | 38 | 80 | 1 | 2 | 17 | 6 |  |  | O=C(c1cc(C2CCCN2c2cc(F)cc(F)c2)c2nc(N3CCOCC3)cnc2c1)N1CC(O)C1 (stereo not shown) [Compound 65]
676 | 17000 | 65 | 80 | 2 | 6 | 79 | 13 |  |  | O=C(NCCCO)c1cc(C2CCCN2c2cc(F)cc(F)c2)c2nc(N3CCOCC3)cnc2c1 (stereo not shown) [Compound 66]
794 | 22400 | 251 | 80 | 1 | 13 | 138 | ~15 |  |  | O=C(NCCO)c1cc(C2CCCN2c2cc(F)cc(F)c2)c2nc(N3CCOCC3)cnc2c1 (stereo not shown) [Compound 71]
204 | 20400 | 56 | 80 | 0.2 | 1 | 17 | 2 |  |  | CNCCNC(=O)c1cc(C2CCCN2c2cc(F)cc(F)c2)c2nc(N3CCOCC3)cnc2c1 (stereo not shown) [Compound 72]
4 | > 30200 | 30 | 80 | 0.1 | 1 | 2 | 2 |  |  | NC1CCN(C(=O)c2cc(C3CCCN3c3cc(F)cc(F)c3)c3nc(N4CCOCC4)cnc3c2)CC1 (stereo not shown) [Compound 75]
251 | > 30200 | 50 | 90 | 0.1 | 7 | 19 | 7 |  |  | OC1CN(Cc2cc(C3CCCN3c3cc(F)cc(F)c3)c3nc(N4CCOCC4)cnc3c2)C1 (stereo not shown) [Compound 76]
302 | 17400 | 363 | 80 | 0.4 | 20 | 83 | 25 |  |  | NCc1cc(C2CCCN2c2cc(F)cc(F)c2)c2nc(N3CCOCC3)cnc2c1 (stereo not shown) [Compound 96]
